Results on 31 compounds are retold here after ChEMBL document CHEMBL1146854, “Estimation of the hydrophobicity of 2,4-diphenyl-1,3-oxazoline analogs and QSAR analysis of their ovicidal activity against Tetranychus [corrected] urticae” (Bioorg Med Chem Lett, 2006).

The nature of data set [1]: Partition coefficient, log P of the compound. The note with it: octanol/water. Format: physicochemical.
Data set [2] concerns Tetranychus urticae. The data set is described as follows: Ovicidal activity against Tetranychus urticae. Format: functional.

Converted amounts (≈) assume the structure as drawn. Bounds are passed on as bounds.

On to `Clc1ccc(C2=NC(c3ccccc3)CO2)cc1` (stereo unspecified), for which the logP in data set [1] came to 4.48. Besides, the LC50 in data set [2] was determined as 100 µg/mL (≈ 388 µM).
For `Fc1cccc(Cl)c1C1=NC(c2ccccc2)CO1` (stereo unspecified) the same measures were 3.45 and 0.01 µg/mL (≈ 0.0363 µM).
The matching figures for `Cc1cccc(C2=NC(c3ccccc3)CO2)c1` (stereo unspecified): 4.11 and more than 1000 µg/mL.
The compound `Fc1cccc(Cl)c1-c1ncco1` had a logP in data set [1] of 1.89.
For the compound `Clc1cccc(C2=NC(c3ccccc3)CO2)c1Cl` (stereo unspecified), in data set [1], the logP came to 4.28. The compound also registered an LC50 in data set [2] of 10 µg/mL (≈ 34.2 µM).
For `CCSc1ccccc1C1=NC(c2ccccc2)CO1` (stereo unspecified) the same measures were 4.04 and 100 µg/mL (≈ 353 µM).
`Fc1ccccc1C1=NC(c2ccccc2)CO1` (stereo unspecified) showed a logP in data set [1] of 3.51. This compound also came in with a median lethal concentration (LC50) in data set [2] of 10 µg/mL (≈ 41.4 µM).
For `Ic1ccccc1-c1ncco1`, the logP in data set [1] worked out at 2.3.
The compound `COc1ccccc1C1=NC(c2ccccc2)CO1` (stereo unspecified) gave a lipophilicity (logP) in data set [1] of 3.76. Besides, the LC50 in data set [2] amounted to 10 µg/mL (≈ 39.5 µM).
For the compound `Cc1cccc(C)c1-c1ncco1`, the logP in data set [1] is 2.21.
`Fc1cccc(F)c1-c1ncco1`: the logP in data set [1] came to 1.45.
The compound `COc1ccc(C2=NC(c3ccccc3)CO2)cc1` (stereo unspecified) returned a logP in data set [1] of 3.78. This compound also gave a 50% lethal concentration (LC50) in data set [2] of 100 µg/mL (≈ 395 µM).
In turn, `Clc1cccc(C2=NC(c3ccccc3)CO2)c1` (stereo unspecified) registered a logP in data set [1] of 4.44. Further, the LC50 in data set [2] was determined as 100 µg/mL (≈ 388 µM).
For `Cc1ccccc1C1=NC(c2ccccc2)CO1` (stereo unspecified) the same measures were 3.68 and 100 µg/mL (≈ 421 µM).
In data set [1], `Brc1ccccc1C1=NC(c2ccccc2)CO1` (stereo unspecified) showed a logP of 3.69. This compound showed an LC50 in data set [2] of 0.1 µg/mL (≈ 0.331 µM).
For `Ic1ccccc1C1=NC(c2ccccc2)CO1` (stereo unspecified) the same measures were 3.86 and 1 µg/mL (≈ 2.86 µM).
For `Clc1ccccc1C1=NC(c2ccccc2)CO1` (stereo unspecified) the same measures were 3.56 and 1 µg/mL (≈ 3.88 µM).
For `Cc1ccc(C2=NC(c3ccccc3)CO2)cc1` (stereo unspecified) the same measures were 4.11 and more than 1000 µg/mL.
Consider `CCOc1ccccc1C1=NC(c2ccccc2)CO1` (stereo unspecified), for which, in data set [1], the logP amounted to 4.22. In data set [2], this compound showed an LC50 of more than 1000 µg/mL.
The matching figures for `c1ccc(C2=NC(c3ccccc3)CO2)cc1` (stereo unspecified): 3.56 and 10 µg/mL (≈ 44.8 µM).
Regarding `O=[N+]([O-])c1ccccc1-c1ncco1`, the logP in data set [1] is 1.27.
Consider `Clc1cccc(Cl)c1C1=NC(c2ccccc2)CO1` (stereo unspecified), for which the logP in data set [1] amounted to 3.69. The same compound came in with an LC50 in data set [2] of 1 µg/mL (≈ 3.42 µM).
For `FC(F)(F)c1ccccc1C1=NC(c2ccccc2)CO1` (stereo unspecified) the same measures were 3.71 and 100 µg/mL (≈ 343 µM).
The matching figures for `Clc1ccc(C2=NC(c3ccccc3)CO2)c(Cl)c1` (stereo unspecified): 4.4 and 10 µg/mL (≈ 34.2 µM).
For `FC(F)(F)c1ccccc1-c1ncco1`, in data set [1], the logP came out at 2.15.
For the compound `Clc1ccc(Cl)c(C2=NC(c3ccccc3)CO2)c1` (stereo unspecified), the logP in data set [1] is 4.4. The LC50 in data set [2] is 100 µg/mL (≈ 342 µM).
The matching figures for `Fc1cccc(F)c1C1=NC(c2ccccc2)CO1` (stereo unspecified): 3.01 and 1 µg/mL (≈ 3.86 µM).
For `COc1cccc(C2=NC(c3ccccc3)CO2)c1` (stereo unspecified) the same measures were 3.77 and more than 1000 µg/mL.
The matching figures for `c1ccc(Oc2ccccc2C2=NC(c3ccccc3)CO2)cc1` (stereo unspecified): 5.61 and 100 µg/mL (≈ 317 µM).
For the compound `O=[N+]([O-])c1ccccc1C1=NC(c2ccccc2)CO1` (stereo unspecified), the logP in data set [1] was 2.83. Also, in data set [2], the LC50 is 100 µg/mL (≈ 373 µM).
The matching figures for `CSc1ccccc1C1=NC(c2ccccc2)CO1` (stereo unspecified): 3.5 and 100 µg/mL (≈ 371 µM).

By logP is commonly meant a log measure of how a compound divides between an organic and an aqueous phase. The term LC50 denotes the concentration lethal to half of the exposed cells or organisms. Read a high LC50 as lower toxicity.
